The source of these data is patent US9364474B2, “Method for treatment of neurologic dysfunction” (MedDEV, Inc., priority 2004, dated 2016).

The test system of assay [1] is ethanol-preferring laboratory hamsters. Conditions: cited from earlier work.
For a further assay, the system named is aldehyde dehydrogenase. Conditions: literature; cited from earlier work.
The target in a further assay is T1, MAO-B (Homo sapiens, UniProt P27338).
T1 sequence (P27338 1-520): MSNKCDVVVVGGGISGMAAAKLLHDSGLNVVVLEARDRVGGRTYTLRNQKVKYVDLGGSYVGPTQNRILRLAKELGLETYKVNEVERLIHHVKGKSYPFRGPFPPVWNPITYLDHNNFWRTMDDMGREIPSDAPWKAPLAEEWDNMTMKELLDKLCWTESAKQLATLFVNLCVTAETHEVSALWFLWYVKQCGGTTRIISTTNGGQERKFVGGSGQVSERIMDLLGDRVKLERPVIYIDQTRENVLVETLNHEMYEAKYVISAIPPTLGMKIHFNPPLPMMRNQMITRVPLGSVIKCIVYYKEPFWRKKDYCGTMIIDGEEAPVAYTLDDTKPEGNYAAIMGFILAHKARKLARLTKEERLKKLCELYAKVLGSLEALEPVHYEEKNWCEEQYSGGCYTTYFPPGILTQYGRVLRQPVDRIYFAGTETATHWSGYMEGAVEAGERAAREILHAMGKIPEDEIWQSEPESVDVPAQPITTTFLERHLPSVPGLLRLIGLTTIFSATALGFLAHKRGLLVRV
Conditions: Egashira et al (1996); Gnerre et al (2001); cited from earlier work.

The next assay has as its system MAO-A. Conditions: Egashira et al (1996); Gnerre et al (2001); cited from earlier work.
The test system of assay [2] is patient suffering from depression. Conditions: Depression Example Four; taking nortriptyline. The protocol:
The treatment composition is suitably applied in a single daily dose, e.g., 0.01 mg of the MAO-A agonist in 0.05 ml of transdermal cream applied once every morning. Caffeine may also be included in the composition to compensate for the anti-hypertensive effect of the preferred reserpine; the caffeine may suitably be included in an amount from about 50-100 mg/dose.
Treatment was in the form of 0.01 mg of reserpine per 0.05 ml of transdermal cream, applied transdermally once a day in the morning.
The treatment consisted of 0.01 mg of reserpine per 0.05 ml of cream, applied transdermally by rubbing the cream into the skin once a day in the morning.
The treatment consisted of 0.01 mg of the reserpine per 0.05 ml of cream, applied transdermally by rubbing the cream into the skin once a day in the morning.
The patient discontinued the use of nortriptyline and the same day started the treatment of the present invention, using 0.01 mg of the reserpine per 0.05 ml cream, applied transdermally by rubbing the cream into the skin once a day in the morning.
The patient then started the treatment of the present invention, using 0.01 mg of the MAO-A activity stimulator (reserpine) per 0.05 ml cream, applied transdermally by rubbing the cream into the skin once a day in the morning.

For `O=c1c(-c2ccc(O)cc2)coc2cc(O[C@@H]3O[C@H](CO)[C@@H](O)[C@H](O)[C@H]3O)ccc12` [daidzin], the “effect on ethanol intake” value in assay [1] is recorded as “suppress ethanol intake”. In addition, in the assay with aldehyde dehydrogenase, the “effect on aldehyde dehydrogenase” value is recorded as “inhibits aldehyde dehydrogenase”.
`CNCCC=C1c2ccccc2CCc2ccccc21` [nortriptyline]: at MAO-B, the “activity towards MAO-B relative to MAO-A” value is on record as “clearly more potent selectivity for MAO-B”. In addition, the “activity towards MAO-A” value with MAO-A was “inhibitory activity”. Further, the “symptoms persisting despite prior medication” value in assay [2] is given as “Decreased energy, fatigue • Early morning awakening”.
